For data set [1], the system named is pig's epidermis. The data set is described as follows: Dermatological compatibility: transepidermal water loss (TEWL), gravimetric. The settings on record: […] by weight partial glyceride or glycerol ether in 17% by weight Plantapon PS 10, pH 5.5; skin treated 30 minutes at 40° C.; lower = better compatibility.
Experimental: (§1) Dermatological compatibility was evaluated by determining the transepidermal water loss (TEWL) in a pig's epidermis. To this end, defined pieces of skin were treated with the various test solutions for 30 minutes at 40° C. and the TEWL value was gravimetrically determined. The test solutions were mixtures of 17% by weight Plantapon® PS 10 (sodium lauryl ether sulfate and Lauryl Glycoside, Cognis Dusseldorf) with 1.5% by weight fatty acid partial glycerides or glycerol ethers (see Table 1) in preservative-containing water (WAS 10% by weight). The pH was adjusted to 5.5 with citric acid.
In data set [2] the test system is pig's epidermis. The settings on record: pH 5.5.
Experimental: as §1

Where two headings read alike, the source gives them in different places.

`CCCCCCCCOCC(O)CO` (centres unmarked) [Example 2, Glycerol monocapryl ether (>90)]: the “TEWL [%-rel] = [treated/untreated * 100] − 100%” value in the data set on pig's epidermis [1] came out at 5.0 %-rel.

Consider `CCCCCCCCCCCC(=O)OCC(O)CO` (centres unmarked) [Example 10, Lauric acid monoglyceride (>90)], for which the “TEWL [%-rel] = [treated/untreated * 100] − 100%” value with pig's epidermis [1] was found to be 10.5 %-rel.

Regarding “Isostearic acid mono/diglyceride (65:35) [Example 7]”, the “TEWL [%-rel] = [treated/untreated * 100] − 100%” value with pig's epidermis [2] is reported as 22.0 %-rel.

As to “Isostearic acid monoglyceride (>90) [Example 8]”, the “TEWL [%-rel] = [treated/untreated * 100] − 100%” value with pig's epidermis [1] came out at 18.5 %-rel.

For “Lauric acid mono/diglyceride (65:35) [Example 9]”, the “TEWL [%-rel] = [treated/untreated * 100] − 100%” value in the data set on pig's epidermis [2] was found to be 20.5 %-rel.

(Values after patent US20040197294A1, “Cosmetic and/or pharmaceutical preparations” (priority 2001, published 2004).)
